Earlier results as cited in patent US20220370613A1, “PHARMACEUTICAL COMPOSITION” (Renown Pharma Inc., priority 2019, published 2022).

Assays:
[1] = test system: "on-off" fluctuations in Parkinson's disease; conditions: subcutaneous injection
"switched on" response = conditions: sublingual administration

pKa: 8.9
Compound: CN1CCc2cccc3c2[C@H]1Cc1ccc(O)c(O)c1-3 [apomorphine]
duration of effect [1]: 45 to 90 min | time to effect [1]: 5 to 15 min | mean time to onset of effect ("switched on" response): approximately 30 minutes
